This note sets out measurements from ChEMBL document CHEMBL4130396, “Bistinospinosides A and B, Dimeric Clerodane Diterpene Glycosides from Tinospora sagittata” (J Nat Prod, 2017).

Molecules are shown by their SMILES. Positions of bridges follow the written chain, without caps; N, C: chain ends. Non-standard residues stand in square brackets, D forms with d. Residues, ends and D or L forms follow the SMILES beside them. *: point of attachment. X1 = CC[C@H](C)CCCCC(=O)*; Dab = NCC[C@H](N)C(=O)O

In the assay the test system is J774.1. Kind of assay: Antiinflammatory activity in mouse J774.1 cells assessed as inhibition of LPS/[…]-induced NO production after 48 hrs by Griess assay. The note with it: J774.1, 48 h. The format is functional, cell-based.
For orientation: IC50 means the point on the concentration scale where inhibition reaches its midpoint. Turning to `CC[C@H](C)CCCCC(=O)N[C@@H](CCN)C(=O)N[C@H](C(=O)N[C@@H](CCN)C(=O)N[C@H]1CCNC(=O)[C@H]([C@@H](C)O)NC(=O)[C@H](CCN)NC(=O)[C@H](CCN)NC(=O)[C@H](CC(C)C)NC(=O)[C@@H](Cc2ccccc2)NC(=O)[C@H](CCN)NC1=O)[C@@H](C)O` (X1-[Dab]T[Dab][Dab][Dab][dF]L[Dab][Dab]T; lactam 4-C), the IC50 turned out to be 8.5 µM.

On to `C[C@@]12C[C@@H](C3=C[C@H]4O[C@@H]3[C@H]3[C@@H]4[C@H]4OC(=O)[C@]3(O[C@@H]3O[C@H](CO)[C@@H](O)[C@H](O)[C@H]3O)[C@]3(C)CC[C@H]5C(=O)O[C@H](c6ccoc6)C[C@@]5(C)[C@H]43)OC(=O)[C@@H]1CC[C@]1(C)[C@H]2[C@H]2C=C[C@]1(O[C@@H]1O[C@H](CO)[C@@H](O)[C@H](O)[C@H]1O)C(=O)O2`, for which the IC50 was greater than 50 µM.

On to `C[C@@]12C[C@@H](C3=C[C@@H]4O[C@H]3[C@H]3[C@H]5OC(=O)[C@@](O[C@@H]6O[C@H](CO)[C@@H](O)[C@H](O)[C@H]6O)([C@H]34)[C@]3(C)CC[C@H]4C(=O)O[C@H](c6ccoc6)C[C@@]4(C)[C@H]53)OC(=O)[C@@H]1CC[C@]1(C)[C@H]2[C@H]2C=C[C@]1(O[C@@H]1O[C@H](CO)[C@@H](O)[C@H](O)[C@H]1O)C(=O)O2`, for which the IC50 was greater than 50 µM.
